Experimental data published in patent publication US12281122B1, “PI3K inhibitors” (Cogent Biosciences, Inc., priority 2023, dated 2025).
pIC50: −log10 of the molar value.

Tests used:
[1] = system: T47D (PI3Kα-H1047R) cell line; experiment: HTRF phospho-AKT(S473) cell assay in T47D cells; format: cell-based, human; conditions: Homo sapiens, 2 hours compound incubation
Procedure, shortened: (§1)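 HTRF read-out of phospho-AKT(S473) in lysates gave IC50 values after 2 h compound exposure at 37° C. Dose series was 12 points at 1:3, topping at 5 μM for T47D and 10 μM for SKBR3. Only SKBR3 received 70 ng/ml PDGF-BB during the last 15 minutes.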

[2] = system: SKBR3 (PI3Kα-Wild Type) cell line; experiment: HTRF phospho-AKT(S473) cell assay in SKBR3 cells; format: cell-based, human; conditions: Homo sapiens, SK-BR-3, 2 hours compound incubation, PDGF-BB stimulated
Procedure, shortened: as §1

[3] = T47D (PI3Kα-H1047R) cells, HTRF phospho-AKT(S473)
[4] = SKBR3 (PI3Kα-Wild Type) cells, HTRF phospho-AKT(S473)
[5] = HTRF phospho-AKT(S473), T47D (PI3Kα-H1047R) cells
[6] = HTRF phospho-AKT(S473), SKBR3 (PI3Kα-Wild Type) cells

Work on `Cc1cc([C@@H](C)Nc2ccc(Cl)nc2C(=O)NS(C)(=O)=O)c2nc(N3CCN(c4ccc(CC#N)cn4)CC3)n(C)c(=O)c2c1` [Compound 206, (R)-6-chloro-3-((1-(2-(4-(5-(cyanomethyl)pyridin-2-yl)piperazin-1-yl)-3,6-dimethyl-4-oxo-3,4-dihydroquinazolin-8-yl)ethyl)amino)-N-(methylsulfonyl) picolinamide] yielded a pIC50 [1, 3] greater than 6.60 and a pIC50 [2, 4] of 5.30 to 6.00.

Compound `Cc1cc([C@@H](C)Nc2ccc(Cl)nc2C(=O)NS(C)(=O)=O)c2nc(N3CCC[C@@H](c4cnc(C)cn4)C3)n(C)c(=O)c2c1` (relative stereo) [Compound 586, 6-chloro-3-(((R)-1-(3,6-dimethyl-2-((R*)-3-(5-methylpyrazin-2-yl)piperidin-1-yl)-4-oxo-3,4-dihydroquinazolin-8-yl)ethyl)amino)-N-(methylsulfonyl) picolinamide] has a pIC50 [1, 5] of 6.30 to 6.60 and a pIC50 [2, 6] of no more than 5.30.

Compound `Cc1cc([C@@H](C)Nc2ccc(Cl)nc2C(=O)NS(C)(=O)=O)c2nc(N3CCC[C@@H](c4ccc(C)nc4)C3)n(C)c(=O)c2c1` (mixture of isomers) [Compound 215, 6-chloro-3-(((R)-1-(3,6-dimethyl-2-((RS)-3-(6-methylpyridin-3-yl)piperidin-1-yl)-4-oxo-3,4-dihydroquinazolin-8-yl)ethyl)amino)-N-(methylsulfonyl) picolinamide] has a pIC50 [1, 3] greater than 6.60 and a pIC50 [2, 4] of 5.30 to 6.00.

`Cc1cc([C@@H](C)Nc2ccc(Cl)nc2C(=O)NS(C)(=O)=O)c2nc(N3Cc4cn(-c5ccc(C#N)cn5)nc4C3)n(C)c(=O)c2c1` [Compound 219, (R)-6-chloro-3-((1-(2-(2-(5-cyanopyridin-2-yl)-2,6-dihydropyrrolo[3,4-c]pyrazol-5(4H)-yl)-3,6-dimethyl-4-oxo-3,4-dihydroquinazolin-8-yl)ethyl)amino)-N-(methylsulfonyl) picolinamide] gave a pIC50 [1, 3] greater than 6.60 and a pIC50 [2, 4] of 5.30 to 6.00.

`Cc1cc([C@@H](C)Nc2ccc(Cl)nc2C(=O)NS(C)(=O)=O)c2nc(N3CCC4(CCCCOC4)CC3)n(C)c(=O)c2c1` [Compound 328, (R)-6-chloro-3-((1-(3,6-dimethyl-4-oxo-2-(8-oxa-3-azaspiro[5.6]dodecan-3-yl)-3,4-dihydroquinazolin-8-yl)ethyl)amino)-N-(methylsulfonyl) picolinamide] showed a pIC50 [1, 3] of 6.30 to 6.60 and a pIC50 [2, 4] of no more than 5.30.

`Cc1cc([C@@H](C)Nc2ccc(Cl)nc2C(=O)NS(C)(=O)=O)c2nc(N3CCC(c4ncn(CC(F)(F)F)n4)CC3)n(C)c(=O)c2c1` [Compound 469, (R)-6-chloro-3-((1-(3,6-dimethyl-4-oxo-2-(4-(1-(2,2,2-trifluoroethyl)-1H-1,2,4-triazol-3-yl)piperidin-1-yl)-3,4-dihydroquinazolin-8-yl)ethyl)amino)-N-(methylsulfonyl) picolinamide] was tested, and the pIC50 [1, 5] was 6.30 to 6.60 and the pIC50 [2, 6] was no more than 5.30.

`COc1ccc(N2C[C@H]3C[C@@H]2CN3c2nc3c([C@@H](C)Nc4ccc(Cl)nc4C(=O)NS(C)(=O)=O)cc(C)cc3c(=O)n2C)cn1` [Compound 638, 6-chloro-3-(((R)-1-(2-((1R,4R)-5-(6-methoxypyridin-3-yl)-2,5-diazabicyclo [2.2.1]heptan-2-yl)-3,6-dimethyl-4-oxo-3,4-dihydroquinazolin-8-yl)ethyl)amino)-N-(methylsulfonyl) picolinamide] was tested, and the pIC50 [1, 5] was 6.30 to 6.60 and the pIC50 [2, 6] was no more than 5.30.

For `Cc1cc([C@@H](C)Nc2ccc(Cl)nc2C(=O)NS(C)(=O)=O)c2nc(C3CCN(c4ccn(C)n4)CC3)n(C)c(=O)c2c1` [Compound 223, (R)-6-chloro-3-((1-(3,6-dimethyl-2-(1-(1-methyl-1H-pyrazol-3-yl)piperidin-4-yl)-4-oxo-3,4-dihydroquinazolin-8-yl)ethyl)amino)-N-(methylsulfonyl) picolinamide], the pIC50 [1, 3] was greater than 6.60 and the pIC50 [2, 4] was 5.30 to 6.00.

Work on `Cc1cnc(N2C[C@@H]3[C@H](C2)[C@H]3c2nc3c([C@@H](C)Nc4ccc(Cl)nc4C(=O)NS(C)(=O)=O)cc(C)cc3c(=O)n2C)nc1` [Compound 810, 6-chloro-3-(((R)-1-(3,6-dimethyl-2-((1R,5S,6r)-3-(5-methylpyrimidin-2-yl)-3-azabicyclo[3.1.0]hexan-6-yl)-4-oxo-3,4-dihydroquinazolin-8-yl)ethyl)amino)-N-(methylsulfonyl) picolinamide] yielded a pIC50 [1, 5] of 6.30 to 6.60 and a pIC50 [2, 6] of no more than 5.30.

In the case of `Cc1cc([C@@H](C)Nc2ccc(Cl)nc2C(=O)NS(C)(=O)=O)c2nc(-c3ccc4nn(C)cc4c3)n(C3CC3)c(=O)c2c1` [Compound 847, (R)-6-chloro-3-((1-(3-cyclopropyl-6-methyl-2-(2-methyl-2H-indazol-5-yl)-4-oxo-3,4-dihydroquinazolin-8-yl)ethyl)amino)-N-(methylsulfonyl) picolinamide], the pIC50 ([1]; T47D (PI3Kα-H1047R) cell line, phospho-AKT(S473) HTRF) was greater than 6.60 and the pIC50 ([2]; SKBR3 (PI3Kα-Wild Type) cell line, phospho-AKT(S473) HTRF) was 5.30 to 6.00.

`Cc1cc([C@@H](C)Nc2ccc(Cl)nc2C(=O)NS(C)(=O)=O)c2nc(-c3cc(F)c4cn(C)nc4c3)n(C)c(=O)c2c1` [Compound 824, (R)-6-chloro-3-((1-(2-(4-fluoro-2-methyl-2H-indazol-6-yl)-3,6-dimethyl-4-oxo-3,4-dihydroquinazolin-8-yl)ethyl)amino)-N-(methylsulfonyl) picolinamide] gave a pIC50 [1, 5] greater than 6.60 and a pIC50 [2, 6] of 5.30 to 6.00.

In the case of `Cc1cc([C@@H](C)Nc2ccc(Cl)nc2C(=O)NS(C)(=O)=O)c2nc(N3C[C@@H]4CC(c5ccn(C)n5)C[C@H]4C3)n(C)c(=O)c2c1` (single isomer, unassigned) [Compound 426, 6-chloro-3-(((R)-1-(3,6-dimethyl-2-((3aR*,6aR*)-5-(1-methyl-1H-pyrazol-3-yl)hexahydrocyclopenta [c]pyrrol-2(1H)-yl)-4-oxo-3,4-dihydroquinazolin-8-yl)ethyl)amino)-N-(methylsulfonyl) picolinamide], the pIC50 [1, 3] was 6.30 to 6.60 and the pIC50 [2, 4] was no more than 5.30.

Compound `Cc1cc([C@@H](C)Nc2ccc(Cl)nc2C(=O)NS(C)(=O)=O)c2nc(N3C[C@@H]4[C@H](C3)[C@H]4c3cc(C)on3)n(C)c(=O)c2c1` [Compound 665, 6-chloro-3-(((R)-1-(3,6-dimethyl-2-((1R,5S,6R)-6-(5-methylisoxazol-3-yl)-3-azabicyclo[3.1.0]hexan-3-yl)-4-oxo-3,4-dihydroquinazolin-8-yl)ethyl)amino)-N-(methylsulfonyl) picolinamide] has a pIC50 [1, 5] greater than 6.60 and a pIC50 [2, 6] of 5.30 to 6.00.

Compound `Cc1cc([C@@H](C)Nc2ccc(Cl)nc2C(=O)NS(C)(=O)=O)c2nc(N3CC[C@H](Oc4cnn(CC(F)(F)F)c4)C3)n(C)c(=O)c2c1` [Compound 330, 6-chloro-3-(((R)-1-(3,6-dimethyl-4-oxo-2-((S)-3-((1-(2,2,2-trifluoroethyl)-1H-pyrazol-4-yl)oxy)pyrrolidin-1-yl)-3,4-dihydroquinazolin-8-yl)ethyl)amino)-N-(methylsulfonyl) picolinamide] has a pIC50 [1, 3] greater than 6.60 and a pIC50 [2, 4] of 5.30 to 6.00.

In the case of `Cc1cc([C@@H](C)Nc2ccc(Cl)nc2C(=O)NS(C)(=O)=O)c2nc(N3Cc4cn(-c5ccnc(C)c5)nc4C3)n(C)c(=O)c2c1` [Compound 146, (R)-6-chloro-3-((1-(3,6-dimethyl-2-(2-(2-methylpyridin-4-yl)-2,6-dihydropyrrolo[3,4-c]pyrazol-5(4H)-yl)-4-oxo-3,4-dihydroquinazolin-8-yl)ethyl)amino)-N-(methylsulfonyl) picolinamide], the pIC50 [1, 3] was greater than 6.60 and the pIC50 [2, 4] was 5.30 to 6.00.

In the case of `COc1cc(O[C@H]2CCN(c3nc4c([C@@H](C)Nc5ccc(Cl)nc5C(=O)NS(C)(=O)=O)cc(C)cc4c(=O)n3C)C2)c(F)cn1` [Compound 611, 6-chloro-3-(((R)-1-(2-((S)-3-((5-fluoro-2-methoxypyridin-4-yl)oxy)pyrrolidin-1-yl)-3,6-dimethyl-4-oxo-3,4-dihydroquinazolin-8-yl)ethyl)amino)-N-(methylsulfonyl) picolinamide], the pIC50 [1, 5] was 6.30 to 6.60 and the pIC50 [2, 6] was no more than 5.30.

Compound `Cc1cc([C@@H](C)Nc2ccc(Cl)nc2C(=O)NS(C)(=O)=O)c2nc(N3CCC(c4cnn(C)n4)CC3)n(C)c(=O)c2c1` [Compound 489, (R)-6-chloro-3-((1-(3,6-dimethyl-2-(4-(2-methyl-2H-1,2,3-triazol-4-yl)piperidin-1-yl)-4-oxo-3,4-dihydroquinazolin-8-yl)ethyl)amino)-N-(methylsulfonyl) picolinamide] has a pIC50 [1, 5] greater than 6.60 and a pIC50 [2, 6] of 5.30 to 6.00.

`Cc1cc([C@@H](C)Nc2ccc(Cl)nc2C(=O)NS(C)(=O)=O)c2nc(N3CCN(c4ccn(C)n4)[C@H](C)C3)n(C)c(=O)c2c1` [Compound 256, 6-chloro-3-(((R)-1-(3,6-dimethyl-2-((R)-3-methyl-4-(1-methyl-1H-pyrazol-3-yl)piperazin-1-yl)-4-oxo-3,4-dihydroquinazolin-8-yl)ethyl)amino)-N-(methylsulfonyl) picolinamide] gave a pIC50 [1, 3] greater than 6.60 and a pIC50 [2, 4] of 5.30 to 6.00.

In the case of `Cc1cc([C@@H](C)Nc2ccc(Cl)nc2C(=O)NS(C)(=O)=O)c2nc(N3CCC(c4n[nH]c(C)c4F)CC3)n(C)c(=O)c2c1` [Compound 547, (R)-6-chloro-3-((1-(2-(4-(4-fluoro-5-methyl-1H-pyrazol-3-yl)piperidin-1-yl)-3,6-dimethyl-4-oxo-3,4-dihydroquinazolin-8-yl)ethyl)amino)-N-(methylsulfonyl) picolinamide], the pIC50 [1, 5] was 6.30 to 6.60 and the pIC50 [2, 6] was no more than 5.30.
